Data from patent publication US20220288014A1, “ORAL FORMULATIONS OF CANNABIS EXTRACTS AND METHODS OF MAKING SAME” (Neptune Wellness Solutions Inc., priority 2019, published 2022).

What was measured:
[1] = Example 2: rat pharmacokinetics of CBD and THC from cannabis extract (1:1 THC:CBD), IV bolus and oral gavage in MCT, TG-O3 or krill oil (PL-O3); format: in vivo; conditions: intravenous administration of cannabis extract in lipid-free solution, at 5 minutes (data not shown)
Excerpt: The study design and methods of analyses of the pre-clinical study were the same as disclosed in Example 1.
Values are expressed as mean±SEM.

[2] = Example 1: rat pharmacokinetics of CBD and THC from cannabis extract (1:1 THC:CBD), IV bolus and oral gavage in MCT, TG-O3 or MAG-O3 carrier oil; conditions: intravenous administration of cannabis extract in lipid-free solution, at 5 minutes (data not shown)

Compound: C=C(C)[C@@H]1CCC(C)=C[C@H]1c1c(O)cc(CCCCC)cc1O [CBD, cannabidiol]
- peak plasma concentration [1]: 1193 ± 290 ng/mL
- peak plasma concentration [2]: 1193 ± 290 ng/mL

Compound: CCCCCc1cc(O)c2c(c1)OC(C)(C)[C@@H]1CCC(C)=C[C@@H]21 [THC, Δ^9tetrahydrocannabinol]
- peak plasma concentration [1]: 864 ± 194 ng/mL
- peak plasma concentration [2]: 864 ± 194 ng/mL
